According to ChEMBL document CHEMBL4725427, “Synthesis and SAR Studies of 1H-Pyrrolo[2,3-b]pyridine-2-carboxamides as Phosphodiesterase 4B (PDE4B) Inhibitors” (ACS Med Chem Lett, 2020):

Experiments:
[1] = molecular target: T1, 3',5'-cyclic-AMP phosphodiesterase 4B (Homo sapiens, UniProt Q07343); assay: Inhibition of recombinant human C-terminal His-tagged N-terminal GST-tagged PDE4B2 expressed in baculovirus infected Sf9 cells at 10 uM by radioligand binding assay relative to control
[2] = Protein binding in human plasma assessed as unbound fraction; format: ADME, cell-free
[3] = Protein binding in mouse plasma assessed as unbound fraction; format: ADME, cell-free
[4] = Metabolic stability in mouse liver microsomes assessed as intrinsic clearance; format: ADME, Microsome; settings: read-out: CLH
[5] = Metabolic stability in human liver microsomes assessed as intrinsic clearance; format: ADME, Microsome; settings: read-out: CLH
[6] = Effect on TNFalpha production in C57BL/6 mouse bone marrow derived Macrophage at 1 to 10 uM incubated for 30 mins by ELISA; settings: 0.5 h
[7] = molecular target: T1, 3',5'-cyclic-AMP phosphodiesterase 4B; assay: Inhibition of recombinant human C-terminal His-tagged N-terminal GST-tagged PDE4B2 expressed in baculovirus infected Sf9 cells by radioligand binding assay; format: cell-based

T1 sequence (Q07343 whole entry): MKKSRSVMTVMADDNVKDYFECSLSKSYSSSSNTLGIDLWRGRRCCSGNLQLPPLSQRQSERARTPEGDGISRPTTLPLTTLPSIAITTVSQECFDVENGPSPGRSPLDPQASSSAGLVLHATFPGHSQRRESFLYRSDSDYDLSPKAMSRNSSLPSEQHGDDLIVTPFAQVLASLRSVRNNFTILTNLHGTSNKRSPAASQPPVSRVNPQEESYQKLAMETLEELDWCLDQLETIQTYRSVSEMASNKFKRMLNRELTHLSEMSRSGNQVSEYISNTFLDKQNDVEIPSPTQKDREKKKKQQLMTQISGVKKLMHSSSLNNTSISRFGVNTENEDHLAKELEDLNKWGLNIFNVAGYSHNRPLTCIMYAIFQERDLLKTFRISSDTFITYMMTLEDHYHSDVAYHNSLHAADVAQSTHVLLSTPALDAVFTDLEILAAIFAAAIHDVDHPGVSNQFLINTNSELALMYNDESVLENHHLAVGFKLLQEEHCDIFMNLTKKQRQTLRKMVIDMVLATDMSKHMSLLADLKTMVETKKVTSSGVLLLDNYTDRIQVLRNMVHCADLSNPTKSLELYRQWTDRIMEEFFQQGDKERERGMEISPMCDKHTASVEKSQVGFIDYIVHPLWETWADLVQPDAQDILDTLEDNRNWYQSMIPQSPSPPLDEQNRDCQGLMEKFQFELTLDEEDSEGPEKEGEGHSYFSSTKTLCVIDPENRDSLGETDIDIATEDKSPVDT

## N#Cc1c(F)cc(-n2c(C(=O)NC3CC(F)(F)C3)cc3cccnc32)cc1F
[1]
  inhibition: 47%

## Cc1ccc(-n2c(C(=O)NC3CC3)nc3cccnc32)cc1Cl
[2]
  fraction unbound: 0.085
[3]
  fraction unbound: 0.056
[4]
  CLint scaled: 150 mL/min/kg
[5]
  CLint scaled: 29.6 mL/min/kg

## O=C(c1cc2cccnc2n1-c1ccnc(F)c1)N1CC(F)(F)C1
[1]
  inhibition: 37%

## O=C(c1cc2ccccc2n1-c1ccc(Cl)c(Cl)c1)N1CC(F)C1
[1]
  inhibition: 58%

## O=C(c1cc2cccnc2n1-c1ccc(Cl)cc1)N1CC(F)(F)C1
[1]
  inhibition: 47%

## N#Cc1c(F)cc(-n2c(C(=O)NC3CC(F)C3)cc3cccnc32)cc1F (stereo not drawn)
[1]
  inhibition: 58%

## Cc1ccc(-n2c(C(=O)NC3CC3)cc3cccnc32)cc1Cl
[2]
  fraction unbound: 0.011
[3]
  fraction unbound: 0.006
[4]
  CLint scaled: 551 mL/min/kg
[5]
  CLint scaled: 172 mL/min/kg

## COc1c(F)cc(-n2c(C(=O)N3CC(F)C3)cc3cccnc32)cc1F
[2]
  fraction unbound: 0.302
[3]
  fraction unbound: 0.133
[6]
  Activity: Non-Toxic
[4]
  CLint scaled: < 49.5 mL/min/kg
[5]
  CLint scaled: < 23.1 mL/min/kg

## N#Cc1c(F)cc(-n2c(C(=O)N3CC(F)(F)C3)cc3cccnc32)cc1F
[1]
  inhibition: 41%

## Cc1ccc(-n2c(C(=O)N3CC(F)(F)C3)cc3cccnc32)cc1Cl
[1]
  inhibition: 47%

## O=C(c1nc2ccccc2n1-c1ccc(Cl)c(Cl)c1)N1CC(F)C1
[7]
  IC50: 2.4 µM

## O=C(NC1CC1)c1cc2cccnc2n1-c1ccc(Cl)c(Cl)c1
[2]
  fraction unbound: 0.026
[3]
  fraction unbound: 0.006
[4]
  CLint scaled: 157 mL/min/kg
[5]
  CLint scaled: 179 mL/min/kg

## COc1ccc(C2CNC(=O)C2)cc1OC1CCCC1 (stereo not drawn) [ROLIPRAM]
[6]
  Activity: Non-Toxic

## Cc1ccc(-c2c(C(=O)NC3CC3)n(C)c3cccnc23)cc1Cl
[1]
  inhibition: 56%

## Cc1ccc(-c2c(C(=O)NC3CC3)sc3nccnc23)cc1Cl
[1]
  inhibition: 46%

## O=C(c1cc2cccnc2n1-c1cc(F)c(Cl)c(F)c1)N1CC(F)(F)C1
[2]
  fraction unbound: 0.113
[3]
  fraction unbound: 0.051
[6]
  Activity: Non-Toxic
[4]
  CLint scaled: 104 mL/min/kg
[5]
  CLint scaled: 33.3 mL/min/kg
[1]
  inhibition: 48%

## Cc1ccc(-n2c(C(=O)NC3CC(F)C3)cc3cccnc32)cc1Cl (stereo not drawn)
[6]
  Activity: Non-Toxic
[7]
  IC50: 9.4 µM

## N#Cc1c(F)cc(-n2c(C(=O)NC3CC3)cc3cccnc32)cc1F
[2]
  fraction unbound: 0.235
[3]
  fraction unbound: 0.096
[4]
  CLint scaled: < 49.5 mL/min/kg
[5]
  CLint scaled: 31.5 mL/min/kg

## COc1c(F)cc(-n2c(C(=O)N3CC(F)(F)C3)cc3cccnc32)cc1F
[1]
  inhibition: 35%

## O=C(NC1CC(F)(F)C1)c1cc2cccnc2n1-c1ccc(Cl)c(Cl)c1
[1]
  inhibition: 23%

## COc1ccc(-n2c(C(=O)N3CC(F)C3)cc3cccnc32)cc1
[1]
  inhibition: 67%

## O=C(c1cc2cccnc2n1-c1ccnc(F)c1)N1CC(F)C1
[2]
  fraction unbound: 0.474
[3]
  fraction unbound: 0.393
[4]
  CLint scaled: < 49.5 mL/min/kg
[5]
  CLint scaled: < 23.1 mL/min/kg

## O=C(NCc1ccco1)c1cc2cccnc2n1-c1ccc(Cl)c(Cl)c1
[1]
  inhibition: 70%

## COc1ncc(-n2c(C(=O)N3CC(F)C3)cc3cccnc32)cc1Cl
[2]
  fraction unbound: 0.049
[3]
  fraction unbound: 0.066
[6]
  Activity: Non-Toxic
[4]
  CLint scaled: 134 mL/min/kg
[5]
  CLint scaled: < 23.1 mL/min/kg

## O=C(NC1CC1)c1nn2ccccc2c1-c1ccc(Cl)c(Cl)c1
[7]
  IC50: 4.2 µM

## O=C(c1cc2cccnc2n1-c1ccc(Cl)c(F)c1)N1CC(F)C1
[6]
  Activity: Non-Toxic

## O=C(c1cc2cccnc2n1Cc1ccc(Cl)c(Cl)c1)N1CC(F)C1
[1]
  inhibition: 72%

## O=C(c1cc2cccnc2n1-c1ccc(Cl)c(F)c1)N1CC(F)(F)C1
[1]
  inhibition: 48%

## COc1ccc(-n2c(C(=O)N3CC(F)C3)cc3cccnc32)cc1F
[1]
  inhibition: 77%
